# Patent US9200047B2, “SSX-2 peptides presented by HLA class II molecules” (Ludwig Institute for Cancer Research, Ltd., priority 2003, dated 2015)
# B1: SSX-2 protein: soluble recombinant SSX-2 protein given to APC (protein, UniProt Q16385 1-188, looked up)
# Protein SSX2: MNGDDAFARRPTVGAQIPEKIQKAFDDIAKYFSKEEWEKMKASEKIFYVYMKRKYEAMTKLGFKATLPPFMCNKRAEDFQGNDLDNDPNRGNQVERPQMTFGRLQGISPKIMPKKPAEEGNDSEEVPEASGPQNDGKELCPPGKPTTSEKIHERSGPKRGEHAWTHRLRERKQLVIYEEISDPEEDDE
# Tests used:
# Assay type in all cases: cell-based, human
# [1] = system: SSX-2 specific CD4^+ T cells; assay: Presentation of peptide SSX-2 13-34 by APC bearing different HLA-DP alleles (intracellular IFN-γ secretion); conditions: healthy donors (Caucasian); not shown
# Description: FIG. 3A: Intracellular IFN-γ secretion by SSX-2 specific CD4+ T cells (clone 3C8) upon stimulation with peptide SSX-213-34 was assessed both in the absence and in the presence of anti HLA-DR, -DP or -DQ antibodies. FIG. 3B: The ability of APC bearing different HLA-DP alleles to present peptide SSX-2 13-34 to specific CD4^+ T cells was assessed by intracellular IFN-γ secretion.
# Molecular typing of HLA-DP molecules, construction of plasmids and transient transfection. […]
# (§1) For intracellular cytokine secretion detection T cells were incubated with APC at a 1:1 T cells:APC ratio during 4-6 h in the absence or in the presence of peptides at the indicated dose. […] Cells were then permeabilized using saponine (Sigma, 0.1% in PBS 10% FCS) stained by incubation with mAb against IFN-γ or IL-2 (BD, Pharmingen) and analyzed by flow cytometry. […] After 24 h incubation at 37° C., culture supernatants were collected and the content of IFN-γ determined by ELISA (BioSource Europe, Fleurus, Belgium). […] Spots were counted using a stereomicroscope with a magnification of ×15. […]
# [2] = system: CD4^+ T cells; assay: Intracellular IFN-γ / IL-2 staining of peptide-stimulated CD4+ T cell cultures from melanoma patients; conditions: culture from patient 672; not shown
# Description: FIGS. 1A and 1B show detection of SSX-2 specific CD4^+ T cells in peptide stimulated cultures. The presence of specific CD4^+ T cells in the culture from patient 672 was assessed by intracellular staining with anti-IFN-γ (FIG. 1A, left panels) or anti-IL-2 antibodies (FIG. 1A, right panels) after stimulation with autologous PBMC alone (upper panels) or with the peptide submixture P1-3 (containing SSX-2 peptides 1-22, 13-34, 25-46). Numbers in upper right quadrants are percent of cytokine producing cells among CD4^+ T cells.
# In vitro sensitization of CD4^+ T cells was carried out as described previously for CD8^+ T cells. […]
# as §1
# [3] = system: SSX-2 specific CD4^+ T cells; assay: Presentation of exogenously added peptide by melanoma cell lines to specific CD4+ T cell clones (ELISPOT); conditions: two lines, Me 260 and T465A
# Description: FIGS. 4A and 4B show the lack of tumor recognition by SSX-2 13-34 specific CD4^+ T cells. FIG. 4A: Recognition of Me 260 cells by CD4+ T cells was tested by ELISPOT in the absence or in the presence of exogeneously added peptide SSX-213-34. Where indicated, cells were treated with IFN-γ during 48 hr. FIG. 4B: Recognition of T465A was assessed as in […] as well as upon transfection with an SSX-2 encoding plasmid. The CD8+ T cell clone B3.4 specific for peptide SSX-2 41-49 was used as an internal control.
# For intracellular cytokine secretion detection T cells were incubated with APC at a 1:1 T cells:APC ratio during 4-6 h in the absence or in the presence of peptides at the indicated dose. One hour after the beginning of the incubation Brefeldin A (20 μg/ml, Sigma Chemical Co., Steinheim, Germany) was added to inhibit cytokine secretion. At the end of the incubation period cells were stained with anti-CD4 mAb for 20 min at 4° C. and fixed. Cells were then permeabilized using saponine (Sigma, 0.1% in PBS 10% FCS) stained by incubation with mAb against IFN-γ or IL-2 (BD, Pharmingen) and analyzed by flow cytometry. Data analysis was performed using Cell Quest software. […] After 24 h incubation at 37° C., culture supernatants were collected and the content of IFN-γ determined by ELISA (BioSource Europe, Fleurus, Belgium). […] Spots were counted using a stereomicroscope with a magnification of ×15. […]
# [4] = system: SSX-2 specific CD4^+ T cells (clone 2C3); assay: IFN-γ secretion (ELISA) by SSX-2 specific CD4+ T cell clone in response to extended or truncated peptides; conditions: for peptide recognition relative to SEQ ID NO:1 (IFN-γ secretion): clone 2C3, EBV LAU 149 as APC, serial peptide dilutions, ELISA after 24 hrs
# Description: FIG. 2 depicts determination of the minimal sequence optimally recognized by SSX-2 specific CD4^+ T cells. Synthetic peptides extended or truncated at the SSX-213-34 N- or C-terminus were used to determine the minimal length of the epitope recognized by SSX-2 specific CD4^+ T cells. Serial dilutions of each peptide were incubated with EBV LAU 149 and SSX-2 specific CD4^+ T cells. IFN-γ secretion was determined by ELISA in the culture supernatant after 24 hrs of culture. The peptides tested were: […] (SSX-213-34; SEQ ID NO:1); […] (SSX-213-36; SEQ ID NO:2); […] (SSX-213-32; SEQ ID NO:3); VGAQIPEKIQKAFDDIAK (SSX-213-30; SEQ ID NO:4); IPEKIQKAFDDIAKYFSK (SSX-217-34; SEQ ID NO:5); EKIQKAFDDIAKYFSK (SSX-219-34; SEQ ID NO:6); IQKAFDDIAKYFSK (SSX-221-34; SEQ ID NO:7) and […] (SSX-261-82; SEQ ID NO:30).
# (§2) For intracellular cytokine secretion detection T cells were incubated with APC at a 1:1 T cells:APC ratio during 4-6 h in the absence or in the presence of peptides at the indicated dose. One hour after the beginning of the incubation Brefeldin A (20 μg/ml, Sigma Chemical Co., Steinheim, Germany) was added to inhibit cytokine secretion. At the end of the incubation period cells were stained with anti-CD4 mAb for 20 min at 4° C. and fixed. Cells were then permeabilized using saponine (Sigma, 0.1% in PBS 10% FCS) stained by incubation with mAb against IFN-γ or IL-2 (BD, Pharmingen) and analyzed by flow cytometry. Data analysis was performed using Cell Quest software. For detection of cytokine secretion in the culture supernatant T cells (10,000) were incubated with stimulating cells (15,000/well) in 96-well round-bottom plates in 200 μl/well of IMDM containing 10% human serum and 20 U/ml hrIL2. After 24 h incubation at 37° C., culture supernatants were collected and the content of IFN-γ determined by ELISA (BioSource Europe, Fleurus, Belgium). IFN-γ ELISPOT assay was performed as described previously (Ayyoub M. et al, 2002, J Immunol 32:2292-2299) using nitrocellulose-lined 96-well microplates (MAHA S45: Millipore, Bedford, Mass.) and an IFN-γ ELISPOT kit (DIACLONE, Besancon, France). Stimulator cells (5×10^4/well) were added together with the indicated number of T cells and peptide (2 μM) where indicated. Spots were counted using a stereomicroscope with a magnification of ×15.
# To more precisely define the SSX-2-derived peptide optimally recognized by specific CD4^+ T cells from patient 672, we analyzed the relative capacity of peptide SEQ ID to NO:1 extended or truncated variants to stimulate IFN-γ secretion by specific clonal T cells (clone 2C3). […] Similar results were obtained using another CD4^+ T cell clone (not shown).
# [5] = system: clonal CD8^+ T cells (clone B3.4); assay: Processing of exogenous SSX-2 protein by professional APC and recognition by SSX-2 41-49 specific CD8+ T cells; conditions: EBV and DC as APC
# [6] = system: SSX-2 13-34 specific CD4^+ T cell clone 3C8; assay: Processing of soluble recombinant protein by professional APC and presentation to specific CD4+ T cells (ELISPOT)
# Description: FIG. 5A: The ability of EBV LAU 149 to process the SSX-2 protein and present the relevant epitope to specific CD4+ T cells was assessed by ELISPOT after 12 hrs incubation with soluble recombinant SSX-2 protein followed by washing. NY-ESO-1 protein was used as an internal control. FIGS. 5B and 5C: Processing and presentation of the SSX-2 CD4^+ T cell epitope by LAU 672 autologous monocyte-derived DC was assessed as in FIG. 5A.
# as §2
# We then assessed the ability of professional APC to process the SSX-2 antigen and present the SSX-2 13-34 epitope to specific CD4^+ T cells.
molecule,measurement,setting,value
VGAQIPEKIQKAFDDIAKYFSK (listed as Homo sapiens) [SEQ ID NO:1],PBMC from healthy donors able to present the epitope to CD4^+ T cells,[1],3 out of 14
same,reactivity of the culture to single peptides in the submixture P1-3,[2],active peptide
same,presentation of peptide by melanoma cell lines to specific T cell clones,[3],efficiently presented
EKIQKAFDDIAKYFSK (listed as Homo sapiens) [SEQ ID NO:6],peptide recognition relative to SEQ ID NO:1 (IFN-γ secretion),[4],did not significantly affect recognition
same,epitope mapping: minimal peptide among analyzed peptides,"[4]; clone 2C3, similar results with another CD4+ T cell clone",minimal peptide optimally recognized
IQKAFDDIAKYFSK (listed as Homo sapiens) [SEQ ID NO:7],reduction of peptide activity,"[4]; relative to SEQ ID NO:1, clone 2C3, IFN-γ ELISA",10 fold
IPEKIQKAFDDIAKYFSK (listed as Homo sapiens) [SEQ ID NO:5],peptide recognition relative to SEQ ID NO:1 (IFN-γ secretion),[4],did not significantly affect recognition
B1,recognition of the CD8^+ T cell epitope SSX-2 41-49 after processing of exogenous protein,[5],did not result in recognition
same,processing of protein and presentation of the epitope / stimulation of clone 3C8,"[6]; EBV LAU 149 as APC, 12 hrs incubation with soluble recombinant protein",efficiently process
same,stimulation of clone 3C8,[6]; EBV cells unable to present the peptide as APC,not significantly stimulated
same,presentation of the epitope to specific CD4+ T cells,[6]; LAU 672 autologous dendritic cells (DC) as APC,Efficient presentation
